Source: PubChem BioAssay (NCI)
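Following 48 hours of exposure in 96-well plates, responses at five concentrations were used to interpolate endpoints linearly. GI50 is the concentration that inhibits growth by half. Definition used: TGI = concentration required for complete inhibition of growth.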

Legend:
Experiment in all cases: NCI anticancer screen, dose series, 48 h
A498 renal = system: A498 renal
CCRF-CEM leukemia = system: CCRF-CEM leukemia
OVCAR-5 ovarian = system: OVCAR-5 ovarian
OVCAR-8 ovarian = system: OVCAR-8 ovarian
SK-MEL-2 melanoma = system: SK-MEL-2 melanoma
SN12C renal = system: SN12C renal
DU-145 prostate = system: DU-145 prostate
HS 578T breast = system: HS 578T breast
SF-295 CNS = system: SF-295 CNS
T-47D breast = system: T-47D breast

Row | SMILES | TGI (A498 renal) [µM] | TGI (CCRF-CEM leukemia) [µM] | TGI (OVCAR-5 ovarian) [µM] | TGI (OVCAR-8 ovarian) [µM] | TGI (SK-MEL-2 melanoma) [µM] | TGI (SN12C renal) [µM] | TGI (DU-145 prostate) [µM] | TGI (HS 578T breast) [µM] | TGI (SF-295 CNS) [µM] | TGI (T-47D breast) [µM] | GI50 (A498 renal) [µM] | GI50 (CCRF-CEM leukemia) [µM] | GI50 (HS 578T breast) [µM] | GI50 (OVCAR-5 ovarian) [µM] | GI50 (OVCAR-8 ovarian) [µM] | GI50 (SF-295 CNS) [µM] | GI50 (SK-MEL-2 melanoma) [µM] | GI50 (SN12C renal) [µM] | GI50 (T-47D breast) [µM] | GI50 (DU-145 prostate) [µM]
1 | O=C(O)CN(c1ccccc1)S(=O)(=O)c1ccc(Cl)cc1 | > 100 | > 100 | > 100 | > 100 | > 100 | > 100 |  |  |  |  |  |  |  |  |  |  |  |  |  | 
2 | COc1ccc(C(=O)C(Br)C(Br)C(=O)O)cc1 (stereo not drawn) | > 100 |  | > 100 | > 100 | > 100 | > 100 | > 100 | > 100 | > 100 | > 100 |  |  |  |  |  |  |  |  |  | 
3 | CC1(C)CCC2(C(=O)O)CC[C@]3(C)C(=CCC4C5(C)CC[C@H](OC6OC(C(=O)O)C(O)C(OC7OC(CO)C(O)C(O)C7O)C6OC6OC(CO)C(O)C(O)C6O)C(C)(C)C5CCC43C)C2C1 (stereo partly drawn) | > 100 | > 100 | > 100 | > 100 | > 100 | > 100 |  | > 100 | > 100 | > 100 | > 100 | > 100 | 97.4 | > 100 | > 100 | 31.1 | > 100 | 84 | > 100 | 
4 | CC1=C(/C=C/C2=CC(=C\C(=O)O)/CC(C3=C(C)CCCC3(C)C)C2)C(C)(C)CCC1 (stereo not drawn) | 28.7 |  | 29.9 | 27.8 | 23.5 | 32.3 |  |  | 22 |  |  |  |  |  |  |  |  |  |  | 
5 | O=C1NC(=O)C(=O)C(c2nc3ccccc3s2)C1=O | > 100 | > 100 |  | > 100 | > 100 | > 100 |  |  | > 100 |  |  |  |  |  |  |  |  |  |  | 
6 | O=C(N/C(=C\c1ccc([N+](=O)[O-])cc1)c1nc2ccc(Cl)cc2[nH]1)c1ccccc1 |  | 95.1 | 74.5 | > 100 | 48.1 | 41.9 |  |  | 63.8 |  |  |  |  |  |  |  |  |  |  | 
7 | O=S1c2ccccc2N=C(c2ccc(Cl)cc2)CC1c1cccs1 (stereo not drawn) | > 100 | 86.5 | 61.3 | 38.4 |  | 38 |  |  | 39.5 |  |  |  |  |  |  |  |  |  |  | 
8 | CC1=C(C(=O)NCC(C)O)CC(C(=O)NCC(C)O)=C(C)N1 (stereo not drawn) |  | > 100 | > 100 | > 100 | > 100 | > 100 | > 100 | > 100 | > 100 | > 100 |  |  |  |  |  |  |  |  |  | 
9 | C[C@@H](Oc1cc(NS(=O)(=O)N2CCC2)nc(SCc2cccc(F)c2F)n1)[C@@H](O)CO |  | > 100 | > 100 | > 100 | > 100 | > 100 | > 100 | > 100 | > 100 | > 100 |  | > 100 | > 100 | > 100 | > 100 | > 100 | > 100 | > 100 | > 100 | > 100
10 | CCOC(=O)/C(C#N)=C\C=C1/C=CNC2=NCCN21 |  | > 100 |  | > 100 | > 100 | > 100 |  |  | > 100 |  |  |  |  |  |  |  |  |  |  | 
11 | Cc1ccc(NC(=O)CC/C(CC(=O)c2ccc(Cl)cc2)=N\NC(=O)C(=O)NN)cc1C | > 100 | > 100 | > 100 | > 100 | > 100 | > 100 |  |  | > 100 |  |  |  |  |  |  |  |  |  |  | 
12 | O=C(O)CCSC(=O)Nc1cccc([N+](=O)[O-])c1 | > 100 | > 100 |  | > 100 | > 100 | > 100 |  |  | > 100 |  |  |  |  |  |  |  |  |  |  | 
13 | C[C@]12CC(C#N)C(=O)C(O)=C1CC[C@@H]1C2CC[C@@]2(C)C1CC[C@@H]2O (stereo partly drawn) | 28.9 | > 100 | > 100 | > 100 | > 100 | > 100 |  |  | > 100 |  |  |  |  |  |  |  |  |  |  | 
14 | N#Cc1ccc(-c2nc3ccc(Cl)cc3[nH]2)cc1 |  | > 100 |  | > 100 | > 100 | > 100 |  | > 100 | > 100 | > 100 |  |  |  |  |  |  |  |  |  | 
15 | Cc1cc(O)c(/C=N/c2nc(-c3cccc([N+](=O)[O-])c3)cs2)c(=O)o1 |  |  | > 100 | > 100 | > 100 | > 100 | > 100 |  | > 100 | > 100 |  |  |  |  |  |  |  |  |  | 
16 | CC(=O)NC1C(OCc2ccccc2)OC(COC(=O)CCCCCNc2ccc([N+](=O)[O-])c3[nH]c4ccc(O)cc4c(=O)c23)C(O)C1OC(C)C(=O)N[C@@H](C)C(=O)N[C@H](CCC(=O)OCc1ccccc1)C(N)=O (stereo partly drawn) | 7.29 | > 27.2 | 3.81 | 10.8 | 3.98 | 18.7 |  |  | 17 |  |  |  |  |  |  |  |  |  |  | 
17 | C[C@@H](NC1CCC[C@@H]1O)c1ccccc1 (stereo partly drawn) |  | > 100 | > 100 | > 100 | > 100 | > 100 |  |  | > 100 |  |  |  |  |  |  |  |  |  |  | 
18 | COc1cc2c(=O)n(CCCn3ccnc3)c3c4cc5c(cc4ccc3c2cc1OC)OCO5 |  | > 100 |  | 41.9 | > 83.8 | > 100 | > 100 | > 80.6 | 12.5 | 7.82 |  | 0.34 | 2.33 |  | 1.46 | 0.331 | 8.06 | 0.635 | 0.245 | 0.51
19 | C=CCCC(C)N(C(=O)OC(C)(C)C)S(=O)(=O)c1ccc(C)cc1 (stereo not drawn) |  |  | > 100 | > 100 | > 100 | > 100 |  |  | > 100 |  |  |  |  |  |  |  |  |  |  | 
20 | COc1cc2ccnc3c2c(c1OC)CC1CC(O)C(OC)CC31 (stereo not drawn) |  | > 100 | > 100 | > 100 | > 100 | > 100 |  |  | > 100 |  |  |  |  |  |  |  |  |  |  | 
21 | CN(C)Cc1cccc(CN(C)C)[c]1[Sn]([Br])([c]1ccccc1)[c]1ccccc1 | 47.6 | > 100 | 32.5 | 26.2 |  | 35.6 | 49.5 | 47 | 32.1 | 21.5 | 21.7 | 5.45 | 19.8 | 16.7 | 12.4 | 14.8 |  | 16.7 | 4.72 | 20.2
22 | NNC(=O)CCC(=O)Nc1ccc(Cl)cc1Cl | > 100 | > 100 | > 100 | > 100 | > 100 | > 100 |  |  | > 100 |  |  |  |  |  |  |  |  |  |  | 
